As usually defined, the melting point is the temperature, or range, at which the solid turns liquid.

As to `CCCCN(CC)c1nc(C)nc2c1NC(=S)CN2c1ccc(C(C)C)cc1Br` [Example 131, 8-(2-bromo-4-isopropylphenyl)-4-(ethylbutylamino)-2-methyl-5,6,7,8-tetrahydropteridin-6-thione], the melting point was 148 to 149 °C.
For `Cc1nc(-c2ccccc2C(F)(F)F)c2c(n1)N(c1ccc(C(C)C)cc1Br)CC(=O)N2` [Example 17, 8-(2-bromo-4-isopropylphenyl)-2-methyl-4-(2-trifluoromethylphenyl)-5,6,7,8-tetrahydropteridin-6-one], the melting point fell in the range of 238 to 239 °C.
Take `CCCCN(CC)c1nc(C)nc2c1NC(=O)CN2c1ccc(C(C)C)cc1Br` [Example 1, 8-(2-bromo-4-isopropylphenyl)-4-(ethylbutylamino)-2-methyl-5,6,7,8-tetrahydropteridin-6-one]: the melting point was in the range of 146 to 147 °C.
With `CCCCN1C(=O)CN2C(=O)CN(c3ccc(C(C)C)cc3Br)c3nc(C)nc1c32` [Example 501, 10-[2-bromo-4-(1-methylethyl)-phenyl]-4-butyl-9,10-dihydro-2-methyl-4H,8H-pyrazino[3,2,1-de]pteridine-5,8(6H)-dione] the figure was 207 to 208 °C.

The record behind these values is patent US6869955B2, “Tetrahydropteridines and pyridylpiperazines for treatment of neurological disorders” (Bristol-Myers Squibb Pharma Company, priority 1996, dated 2005).
